Source: patent US20150056702A1, “METHOD AND KIT FOR CULTURING STEM CELLS” (China Medical University, priority 2013, published 2015)

Assays:
Assay type in all cases: cell-based, mouse
Pou5fl-GFP MEF cells = test: Examination of iPS cell generation efficiency (GFP fluorescence)
From the text: The MEF cells were isolated from Pou5fl-GFP transgenic mice (The Jackson lab). The pcDNA-Oct4, pcDNA-Sox2, pcDNA-c-Myc, and pcDNA-Klf4 plasmids were introduced once every two days (4 times total) into the Pou5fl-GFP MEF cells to generate iPS cells through co-transfection. The medium was changed to BP-containing medium 6 days post-transfection, and the medium was exchanged everyday. On day 9, the MEF cells were passaged onto feeder cells provided by Example 1 and the GFP-positive clones were observed. Finally, the GFP fluorescent signals of the iPS cells were detected by a fluorescent microscope. The fluorescent signal intensity is directly proportional to the cell generation efficiency.
This example includes two groups, BP (T+P) and BP (T), wherein BP (T+P) refers to the group cultured with the experimental group medium (BP10) post-transfection and after placing onto feeder cells, and BP (T) refers to the group cultured with the experimental group medium (BP10) post-transfection.

Sox2 = test: Real-time PCR, Sox2 gene expression in ES cells; details: for Sox2 gene expression level: ES cells, control group = 100%
Method: (§1) The following steps were conducted in order to culture ES cells: • (1) preparing a stem cell medium: DMEM+15% heat-inactivated FBS+NEAA (0.1 mM)+L-glutamine (2 mM)+β-mercaptoethanol (0.2 mM); • (2) preparing a BP-containing solution: dissolving BP into DMSO to form a BP-containing solution (100 mg/ml), and storing the solution at −20° C.; • (3) adding different amounts of the BP-containing solution in step (2) into the stem cell medium in step (1) to form different BP-containing mediums, wherein the amount of BP were about 5, 10, 20 or 40 μg per milliliter of the stem cell medium respectively (i.e. the experimental group mediums: BP5, BP10, BP20 and BP40); and • (4) using the BP-containing medium of in step (3) to culture a ES cell (retrieved from the embryos in the blastula stage of 129sv/J mice) at 37° C., 5% CO2 and 95% humidity on the feeder cells provided by Example 1.
(§2) An experimental group medium (BP5, BP10, BP20 or BP40) and a control group medium (without BP) were added respectively to perform the following steps. ES cells were cultured with an initial density of 1×10^4 per well in a 6-well culture dish. The medium was removed until the cells growth to be about 70 to 80% confluence, and then 1 ml TRIzol (Invitrogen) was added into each well. The cells were incubated for 5 minutes, and then was scraped by a spatula and placed into a 1.5 ml microtube to be lysed adequately. Chloroform (0.2 ml) was added into the microtubes. The mixture was shaken up and down for 15 seconds, and then incubated at room temperature for 2 to 3 minutes. Thereafter, the mixture was centrifuged at 12000 rpm at 4° C. for 15 minutes, and the supernatant was removed into another 1.5 ml microtube and isopropanol (0.5 ml) was added into the microtube with well mixing. The mixture was incubated at room temperature for 10 minutes and then centrifuged at 12000 rpm at 4° C. for 10 minutes. The supernatant was then removed. One ml of 70% ethanol containing DEPC.H2O was used to wash the remaining sediment. The sediment was centrifuged at 7500 rpm at 4° C. for 5 minutes. The supernatant was removed. The sediment was dried by vacuum suction. The dried samples were dissolved in about 0.01 to 0.02 ml of DEPC.H2O to obtain the experimental group RNA and control group RNA. Both groups were stored at −80° C.
(§3) The OD value of RNA samples in both groups obtained from the above Experiment I were measured at a wavelength of 260 nm (RNA: OD260=1 for a 40 μg/mL solution). Each RNA sample (2 μl) was added with RNA-free water until the volume of the sample reached 10 μl. Two μl oligo (dT) (100 μg/ml) was added into each sample, and the samples were incubated at 65° C. for 5 minutes. Then, the samples were immediately placed on ice and spun down. Next, 6.5 μl of a reaction solution [4 μl of 5× buffer+1 μl of 0.1 M DTT+1 μl of RNase out+0.5 μl of SSIII (Invitrogen)] was added into each of the samples, and the samples were incubated at 50° C. for about 30 to 60 minutes and at 75° C. for 15 minutes to obtain the experimental group cDNA and control group cDNA. Both groups were stored at −80° C.
(§4) This experiment was used to detect the expression levels of ES cell-related genes, i.e., Oct4 and Sox2, etc. […] The cycle threshold (CT) values were measured.

Oct4 = test: Real-time PCR, Oct4 gene expression in ES cells; details: for Oct4 gene expression level: ES cells, control group = 100%
Method: as §1, §2, §3, §4

[1] = BP10 medium (about 10 μg BP/ml)
[2] = BP20 medium (about 20 μg BP/ml)
[3] = BP40 medium (about 40 μg BP/ml)
[4] = BP-containing ES cell culture medium vs control group, result in words

CCCC=C1OC(=O)c2ccccc21 [BP, n-butylidenephthalide]
GFP fluorescence intensity in the iPS cells formed (Pou5fl-GFP MEF cells; BP (T): BP10 medium post-transfection, Day 7): 20.5 | GFP fluorescence intensity in the iPS cells formed (Pou5fl-GFP MEF cells; BP (T): BP10 medium post-transfection, Day 14): 70.5 | GFP fluorescence intensity in the iPS cells formed (Pou5fl-GFP MEF cells; BP (T): BP10 medium post-transfection, Day 20): 65.5 | GFP fluorescence intensity in the iPS cells formed (Pou5fl-GFP MEF cells; BP (T+P): BP10 medium post-transfection and after placing onto feeder cells, Day 7): 27.5 | GFP fluorescence intensity in the iPS cells formed (Pou5fl-GFP MEF cells; BP (T+P): BP10 medium post-transfection and after placing onto feeder cells, Day 14): 82 | GFP fluorescence intensity in the iPS cells formed (Pou5fl-GFP MEF cells; BP (T+P): BP10 medium post-transfection and after placing onto feeder cells, Day 20): 92.5 | GFP fluorescent signals (iPS cell generation efficiency) (Pou5fl-GFP MEF cells; BP-containing iPS cell medium vs control group (without BP), result in words): higher GFP fluorescent signals | Sox2 gene expression level (Sox2; BP5 medium (about 5 μg BP/ml)): 91% | Sox2 gene expression level (Sox2; [1]): 245% | Sox2 gene expression level (Sox2; [2]): 210% | Sox2 gene expression level (Sox2; [3]): 140% | gene expression level of Sox2 (Sox2; [4]): significantly up-regulated | Oct4 gene expression level (Oct4; BP5 medium (about 5 μg BP/ml)): 119% | Oct4 gene expression level (Oct4; [1]): 419% | Oct4 gene expression level (Oct4; [2]): 258% | Oct4 gene expression level (Oct4; [3]): 144% | gene expression level of Oct4 (Oct4; [4]): significantly up-regulated
